The series can be described thus: Stability study on storage (polymorphic conversion followed by XRD). Type of series: physicochemical. The protocol:
A first aspect of the present invention provides stable polymorphic Form I of ritonavir having no tendency to convert to any other polymorphic form. […] The X-Ray powdered Diffraction (XRPD) pattern of stable Form I of ritonavir is provided in FIGS. 1a and 2a of the drawing.
(XRD pattern of the title compound stored at 25° C. after 3 months is depicted in FIG. 3).

`CC(C)c1nc(CN(C)C(=O)N[C@H](C(=O)N[C@@H](Cc2ccccc2)C[C@H](O)[C@H](Cc2ccccc2)NC(=O)OCc2cncs2)C(C)C)cs1` (relative stereo) [Example 2, [5S-(5R*,8R*,10R*,11R*)]-10-Hydroxy-2-methyl-5-(1-methylethyl)-1-[2-(1-methylethyl)-4-thiazolyl]-3,6-dioxo-8,11-bis(phenylmethyl)-2,4,7,12-tetraazamidecan-13-oic acid, 5-thiazolylmethyl ester]: the “conversion in the polymorphic form on storage” value (stored at 25° C. for 3 months, XRD pattern (FIG. 3)) is “no conversion in the polymorphic form was observed”. On to `CC(C)c1nc(CN(C)C(=O)N[C@H](C(=O)N[C@@H](Cc2ccccc2)C[C@H](O)[C@H](Cc2ccccc2)NC(=O)OCc2cncs2)C(C)C)cs1` (single isomer, unassigned) [Form I of ritonavir, [5S-(5R*,8R*,10R*,11R*)]-10-Hydroxy-2-methyl-5-(1-methylethyl)-1-[2-(1-methylethyl)-4-thiazolyl]-3,6-dioxo-8,11-bis(phenylmethyl)-2,4,7,12-tetraazamidecan-13-oic acid, 5-thiazolylmethyl ester], for which the “stability of polymorphic form upon storage” value (prepared as per prior art process, tendency to convert to other forms, especially Form II) is given as “not stable”.
